For one test, the system named is OT1 splenocytes. Kind of test: Metabolomics, acetyl-CoA and 13C tracing by mass spectrometry. In kind it is cell-based, mouse. An excerpt: (§1) Mechanistically, it was hypothesized by the inventors that epigenetic processes might underlie the observed long-term memory phenotype and anti-tumor activity upon metabolic intervention with MPCi. […] Since acetyl-CoA is the acetyl donor for the acetylation of proteins, amongst which also histones, histone post-translational modifications were examined that are known to make chromatin accessible to transcription factors, a characteristic of memory T cells. […] These are marks known to open chromatin and make it accessible for transcription factor docking. […] Amongst those were Sell, Tcf7 and Ccr7, thereby correlating accessible chromatin with increased mRNA copies (FIG. 3E and see above).
OT1 splenocytes were activated and cultured as described above. After 66 hours, the cells were collected and the medium was replaced with glucose- and glutamine-free RPMI, supplemented with 10% dialyzed FBS, 1% P/S, 10 mM HEPES, 50 μM β-mercaptoethanol and either 11 mM normal glucose or 11 mM U-^13C6-glucose (Cambridge Isotopes) with respectively 4 mM ^13C5-glutamine (Cambridge Isotopes or 4 mM normal L-glutamine. After 6 hours labelling at 37° C., cells were collected and lysed in Methanol. Next Chloroform was added, and after centrifugation, the fraction containing the polar metabolites was collected and dried on a SpeedVac. Samples were then resuspended and loaded on a mass spectrometer. The spectra of AcetylCoA were analyzed with the M+0 representing the unlabeled fraction, and the M+2 representing the Acetyl group derived from the ^13C-labelled substrate (glucose or glutamine).

In another test the test system is adult human T cells. Kind of test: Mitochondrial staining (MitoGreen, TMRM) of adult human T cells. In kind it is cell-based. The note with it: day 9; 25 μM; fold change compared to DMSO. How it is done:
FIG. 7: MPC inhibition during the activation and culture of adult human T cells induces a memory phenotype. (A) Experimental design. PBMCs were isolated from adult healthy volunteers and activated with anti-CD3/CD28 beads in the presence of DMSO or UK5099 (25 μM). Beads were removed at day 5 and T cell phenotype was analysed at day 9. (B) Percentage of CD8 T cells expressing the memory marker CD62L. (C) The mean fluorescent intensity of CD62L in the respective positive population. (D) Percentage of CD8 T cells expressing markers that allows their identification as stem cell memory T cells (TSCM). (E-F) Mitochonrial mass (identified by MitoGreen staining, E) and mitochondrial membrane potential (TMRM, F), measured by flow cytometry and expressed as fold change as compared to DMSO. (G) Mitochondrial membrane potential normalized for the mitochondrial mass, expressed as the ratio of […], fold change as compared to DMSO. Pooled data from 2 independant experiments. ns: non-significant, *p<0.05, **[…], ***p<0.001. Data represents mean±s.e.m.
Heparinised blood was diluted with PBS and pipetted on top of Ficoll-paque (LymphoPrep). After centrifugation at 1800 rpm for 20 minutes at room temperature, the layer of cells at the intersection, containing the PBMCs was removed, washed and resuspended at 5×10^5 cells/ml of RPMI medium containing 8% human serum (AB serum), antibiotics, 2 mM L-Glutamine, 1% non-essential amino acids, 1 mM sodium pyruvate and 50 μM β-mercaptoethanol (all Gibco). Cells were activated with Human T-activator CD3/CD28 Dynabeads at a 1 bead/cell ratio with 150 IU/ml human recombinant IL2 and DMSO or 25 μM UK5099. Throughout the culture, cells were regularly split when necessary and beads were removed at day 5. At day 9, a fraction of the cells was stained with antibodies for flow cytometry analysis or for mitochondrial analysis.
2×10^5 cells were stained with 25 nM TMRM and 50 nM MitoGreen (Molecular Probes, Invitrogen) for 30 minutes in RPMI with 5% FCS at 37° C. […]

Test [1] deals with histone 3 (H3K4-3Me, H3K27-Ac) in CD8 T cells. Kind of test: Western blot of histone 3 modifications. It is filed as cell-based, mouse.
Excerpt: as §1
Cells were lysed in RIPA lysis buffer (50 mM TrisHCl pH8, 150 mM NaCl, 1% Triton X 100, 0.5% Sodium deoxycholate, 0.1% SDS) and Halt protease/phosphatase cocktail inhibitors (Roche) and denatured by heat. Proteins were quantified by BCA protein assay kit (Thermo Scientific). Proteins were separated on 12.5% polyacrylamide gradient gels and transferred onto nitrocellulose membranes 0.2 μm (Biorad). Non-specific binding sites were blocked in milk 5% and membranes were incubated with primary antibodies (Cell Signaling). […]

As to `N#CC(=Cc1cn(-c2ccccc2)c2ccccc12)C(=O)O` [UK5099, 2-cyano-3-(1-phenyl-1H-indol-3-yl)-2-propenoic acid], in the test on OT1 splenocytes (6 hours labelling), the “13C-glutamine incorporation into acetyl-CoA” value is reported as “incorporated dramatically more” and the “13C-labeled glucose incorporation into acetyl-CoA” value was “incorporating less”. In the test with OT1 splenocytes (mass spectrometry, vs DMSO), the “total acetyl-CoA levels” value is recorded as “strong increase”. In the test on adult human T cells, the “mitochondrial membrane potential (TMRM)” value is listed as “significantly increased”, the “mitochondrial membrane potential normalized for the mitochondrial mass” value is reported as “more polarised mitochondria” and the “total mitochondrial mass (MitoGreen)” value was “did not impact”. Further, in test [1], the “acetylation of lysine 27 on histone 3 (H3K27-Ac)” value is on record as “increase” and the “trimethylation of lysine 4 on histone 3 (H3K4-3Me)” value is listed as “increase”.

The record behind these values is US20230302131A1, “MPC INHIBITION FOR PRODUCING T-CELLS WITH A MEMORY PHENOTYPE” (UNIVERSITÉ DE LAUSANNE, priority 2020, published 2023).
